Like-named read-outs stand apart in the source and are kept apart here.
System: subjects suffering from the Insomnia Disorder adult insomnia
Format: in vivo, human
Experimental: Following the evening-time dosing with study drug, subjects underwent eight hours of continuous PSG recording. Next-day residual effects were assessed by the DSST and the KSS evaluation, collected in that order, starting at approximately 30 minutes after “lights-on.” All tests were administered in the clinical unit, beginning 30 minutes after lights-on and periodically thereafter for approximately 16 hours post-lights-off, following completion of PSG recording. Each subject also completed a post-sleep questionnaire once after lights-on so that subjective impressions could be assessed about the “quality” and “quantity” of their sleep. Before the second night dosing in each dosing period, subjects were evaluated for any residual sleepiness. […] Subjects remained in the clinic until residual symptoms were minimized.
The well-known KSS measures, subjectively, the level of a subject's sleepiness at a specific time of the day and was therefore useful as another indication of next day residual effects, if any. The KSS comprised a 9-step scale (ranging from, e.g., “extremely alert” (assigned 1 point) to alert (assigned 3 points) to “neither sleepy nor alert” (assigned 5 points) to “sleepy” (assigned 7 points) to “extremely sleepy” (assigned 9 points)) that characterized sleepiness at a particular time during the day (within 5 minutes of the assessment).
In a paper-and-pencil evaluation, each subject checked a box corresponding to the point of the scale that best characterized their state of drowsiness experienced during the preceding 5 minutes. The KSS evaluation followed the DSST after each night of the baseline visit (Visit 2) and after each night of Dosing Periods 1-5 according to the schedule set out in the previous example.
The KSS evaluation results shown, other than for the baseline, are the mean results obtained from the KSS evaluation scores following all nights of Dosing Periods 1-5 for the indicated dose. The KSS evaluation results for the baseline are the mean results obtained following the first and second nights of the baseline visit. Note that for clarity of display purposes, in FIG. 7 many of the test results at each time period, e.g., at approximately ½ hour after lights-on/9 hours post-dosing, were staggered arbitrarily away from the actual time when the test was conducted.

## O=C(O)c1nc2ccccc2n([C@H]2C[C@H]3CCC[C@@H](C2)N3C2CC3CCCC(C3)C2)c1=O (stereo partly shown) [Compound (1C)]
0.5 mg, about 9 to about 16 hours post-dosing
  next day residual effects by mean KSS evaluation results vs placebo: no next day residual effects
1.0 mg, about 9 to about 16 hours post-dosing
  next day residual effects by mean KSS evaluation results vs placebo: no next day residual effects
3.0 mg, each of the testing times
  next day residual effects by mean KSS evaluation results vs placebo: some next day residual effects
6.0 mg, each of the testing times
  next day residual effects by mean KSS evaluation results vs placebo: some next day residual effects
